Source: EPA's ToxValDB 9.5 (doi:10.2903/j.efsa.2015.3958)

Tests used:
[1] = system: Apis mellifera; details: acute; oral; unspecified; mortality
[2] = system: Folsomia candida; details: chronic/long-term; duration: 28 days
[3] = system: Pimephales promelas; details: chronic/long-term; duration: 32 days; growth
[4] = system: Colinus virginianus
[5] = system: Daphnia magna; details: chronic/long-term; duration: 21 days; reproduction
[6] = system: Tagia sp.
[7] = system: Rattus norvegicus
[8] = system: Hypoaspis aculeifer; details: acute; duration: 14 days

COc1nc(C)nc(NC(=O)NS(=O)(=O)c2ccccc2OCCCl)n1 [Triasulfuron]
LD50 [1]: > 100 µg/piece
NOEC [2]: 100 mg/kg
NOEC [3]: 36.6 mg/L
LC50 ([4]; acute, oral, diet, mortality): > 5000 mg/kg
LD50 ([4]; acute, oral, mortality): > 2150 mg/kg
NOEL ([4]; reproduction developmental): 94 mg/kg-day
NOEC [5]: 10 mg/L
LC50 ([6]; acute, duration: 14 days, mortality): > 1000 mg/kg
NOEC ([6]; chronic/long-term, duration: 8 weeks): 50.8 mg/kg
LD50 ([7]; acute, mortality): > 5000 mg/kg
NOAEL ([7]; chronic): 50 mg/kg-day
NOEC [8]: 100 mg/kg
